Data as given in paper PMC11783601, “Analogue-Sensitive Inhibition of Histone Demethylases Uncovers Member-Specific Function in Ribosomal Protein Synthesis” (Journal of the American Chemical Society, 2025).
“And” between values parts separate entries of the source, which are not always exact repeats. Equal entries are not always repeated.

Target: T1, KDM4A F185A (asKDM4A) in HEK293T cells (Homo sapiens, UniProt O75164, F185A)
T1 construct: we generated the F185A mutation in full-length KDM4A carrying all of the functional domains; host or cells: HEK293T
T1 sequence (O75164 1-1064 F185A): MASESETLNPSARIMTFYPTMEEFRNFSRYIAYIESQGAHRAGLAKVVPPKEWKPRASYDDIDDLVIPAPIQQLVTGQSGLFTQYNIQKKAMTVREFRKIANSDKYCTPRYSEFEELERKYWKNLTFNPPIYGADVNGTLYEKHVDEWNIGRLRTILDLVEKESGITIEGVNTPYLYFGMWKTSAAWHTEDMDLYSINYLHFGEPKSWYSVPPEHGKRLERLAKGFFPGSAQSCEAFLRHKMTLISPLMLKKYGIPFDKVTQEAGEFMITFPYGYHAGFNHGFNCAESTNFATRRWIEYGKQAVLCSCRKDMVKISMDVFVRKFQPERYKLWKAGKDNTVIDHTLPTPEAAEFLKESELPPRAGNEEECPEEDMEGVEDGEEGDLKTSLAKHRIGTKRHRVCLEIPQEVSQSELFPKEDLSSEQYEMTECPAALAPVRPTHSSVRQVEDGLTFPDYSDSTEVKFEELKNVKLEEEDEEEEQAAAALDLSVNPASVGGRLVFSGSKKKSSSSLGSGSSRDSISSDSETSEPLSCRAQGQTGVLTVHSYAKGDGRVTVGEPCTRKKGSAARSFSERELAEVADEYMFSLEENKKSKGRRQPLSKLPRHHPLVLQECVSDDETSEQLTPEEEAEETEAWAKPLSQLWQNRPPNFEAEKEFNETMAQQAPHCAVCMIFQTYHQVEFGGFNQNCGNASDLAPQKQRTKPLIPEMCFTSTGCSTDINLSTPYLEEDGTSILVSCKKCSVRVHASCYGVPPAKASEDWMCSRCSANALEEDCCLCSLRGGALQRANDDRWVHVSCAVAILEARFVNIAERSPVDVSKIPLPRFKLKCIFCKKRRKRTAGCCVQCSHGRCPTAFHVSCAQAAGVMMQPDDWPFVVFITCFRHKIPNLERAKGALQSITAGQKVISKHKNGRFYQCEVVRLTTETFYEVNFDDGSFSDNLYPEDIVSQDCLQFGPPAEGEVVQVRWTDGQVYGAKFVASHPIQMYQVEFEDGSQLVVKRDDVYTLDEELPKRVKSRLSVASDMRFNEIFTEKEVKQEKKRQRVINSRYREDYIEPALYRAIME
Assay: Histone extraction, digestion and tandem mass spectrometry (relative abundance of histone modifications)
Assay type: cell-based
Method: HEK293T cells were transiently transfected with asKDM4A and treated with varying concentrations of 6A or 6B. […] To further confirm the activity of the enzyme–inhibitor pair, we performed tandem mass spectrometry of tryptic histones isolated from HEK293T cells expressing asKDM4A in the presence or absence of 100 μM 6A. […]
22. Histone extraction, digestion and tandem mass spectrometry
HEK 293-T cells (ATCC CRL-1573) were plated into 6-well plates (Corning) in DMEM (Corning) supplemented with 10% FBS (Corning) and 1X Antibiotic/Antimycin
(Penicillin/Streptomycin/Fungiozone) (Cytiva HyClone) in an incubator held at 37 °C with 5%
CO2. At 75% confluency, cells were transfected with 2.5 µg KDM4A F185A or Empty Vector with 5µg Thermo Turbofect (FERR0531). After 4 hours, the media was washed and 200 µM of 6A or equivalent volume of DMSO was added and left to incubate at 37 °C for 24 hours. Cells were then washed with 1X PBS (Corning) followed by trypsinization (Gibco TrypLE™ Express Enzyme). Collected cells were centrifuged at 3000xg for 3 minutes, followed by washing with 1X PBS and centrifuged for an additional 3000xg for 3 minutes. Histone proteins were extracted from the pellet as described by25 to ensure good-quality identification and quantification of single histone marks. Briefly, cell pellets were dissolved in 100 µL of cold 0.2 M H2SO4 and incubated for 2 hours rotating in a cold room (4 °C). Aliquots were then centrifuged at 3400xg for 5 minutes […]
at 4 °C and the supernatant was added to a fresh tube. 100% cold TCA was then added to a final volume of 33% volume/volume TCA/supernatant and left to incubate for 1 hour in a cold room (4 °C). Samples were then centrifuged at 3400xg for 5 min at 4 °C and the supernatant was discarded. The precipitate was then washed with cold acetone/0.1% HCl and centrifuged at 3400xg for 5 minutes at 4 °C. The supernatant was discarded, and the precipitate was washed with cold acetone and centrifuged at 3400xg for 5 minutes at 4 °C. The supernatant was discarded, and the pellet was dried using a vacuum centrifuge.
The pellet was dissolved in 50 mM ammonium bicarbonate, pH 8.0, and histones were subjected to derivatization using 5 µL of propionic anhydride and 14 µL of ammonium hydroxide (all Sigma Aldrich) to balance the pH at 8.0. The mixture was incubated for 15 min and the procedure was repeated. Histones were then digested with 1 µg of sequencing grade trypsin (Promega) diluted in 50mM ammonium bicarbonate (1:20, enzyme:sample) overnight at room temperature.
Derivatization reaction was repeated to derivatize peptide N-termini. The samples were dried in a […]
Sample desalting: Prior to mass spectrometry analysis, samples were desalted using a 96-well plate filter (Orochem) packed with 1 mg of Oasis HLB C-18 resin (Waters). Briefly, the samples were resuspended in 100 µl of 0.1% TFA and loaded onto the HLB resin, which was previously equilibrated using 100 µl of the same buffer. After washing with 100 µl of 0.1% TFA, the samples were eluted with a buffer containing 70 µl of 60% acetonitrile and 0.1% TFA and then dried in a […]
LC-MS/MS Acquisition and Analysis: Samples were resuspended in 10 µl of 0.1% TFA and loaded onto a Dionex RSLC […] (Thermo Scientific), coupled online with an Orbitrap Fusion Lumos (Thermo Scientific). Chromatographic separation was performed with a two-column system, consisting of a C-18 trap cartridge (300 µm ID, 5 mm length) and a picofrit analytical column (75 µm ID, 25 cm length) packed in-house with reversed-phase Repro-Sil Pur C18-AQ 3 µm resin. Peptides were separated using a 30 min gradient from 1-30% buffer B (buffer A: 0.1% formic acid, buffer B: 80% acetonitrile + 0.1% formic acid) at a flow rate of 300 nl/min.
The mass spectrometer was set to acquire spectra in a data-independent acquisition (DIA) mode.

[1] = 6A-treated samples, replicates _1 and _2
[2] = H1 variant peptide, samples 6A_1, 6A_2
[3] = HEK293T cells expressing asKDM4A, 100 μM 6A, LC-MS/MS, n = 2
[4] = HEK293T cells, KDM4A F185A + 6A, replicates 6A_1 and 6A_2

## CCCCCCCCOC(=O)C(=O)NC(CC(C)C)C(=O)O [6A, L-Leu octyl-ester NOG]
[1]
  Single marks H3K4ac: 1e-6 and 0.002004
  Single marks H3K4me1: 0.1039 and 0.09374
  Single marks H3K4me2: 0.002434 and 0.008819
  Single marks H3K4me3: 9e-6 and 0.003387
  Single marks H3K9ac: 0.003245 and 0.006938
  Single marks H3K9me1: 0.2368 and 0.08817
  Single marks H3K9me2: 0.4213 and 0.4856
  Single marks H3K9me3: 0.1855
  Single marks H3K14ac: 0.4176 and 0.5798
  Single marks H3K18ac: 0.008957 and 0.006562
  Single marks H3K18me1: 0 and 1.2e-5
  Single marks H3K23ac: 0.5125 and 0.4435
  Single marks H3K23me1: 0 and 5e-6
  Single marks H3K56ac: 0
  Single marks H3K56me1: 0 and 0.9736
  Single marks H3K56me2: 0
  Single marks H3K56me3: 0
  Single marks H3K79ac: 0
  Single marks H3K79me1: 0.3484 and 0.03322
  Single marks H3K79me2: 0.33 and 0.01715
  Single marks H3K79me3: 0.04582 and 0
  Single marks H3K122ac: 0.5896 and 0
  Single marks H3S10ph: 0.08584 and 0.005059
  Single marks H4K5ac: 0.04104 and 0.1648
  Single marks H4K8ac: 0.05131 and 0.1596
  Single marks H4K12ac: 0.09119 and 0.2668
  Single marks H4K16ac: 0.3167 and 0.492
  Single marks H4K20ac: 0.00298 and 0.01255
  Single marks H4K20me1: 0.4844 and 0.3612
  Single marks H4K20me2: 0.1012 and 0.2416
  Single marks H4K20me3: 0.03481 and 0.03641
  Single marks H31K27ac: 0.000296 and 0
  Single marks H31K27me1: 0.18 and 0.1869
  Single marks H31K27me2: 0.4707 and 0.5161
  Single marks H31K27me3: 0.189 and 0.1409
  Single marks H31K36me1: 0.204 and 0.1649
  Single marks H31K36me2: 0.3714 and 0.4932
  Single marks H31K36me3: 0.07097 and 0.06279
  Single marks H33K27ac: 6.9e-5 and 0
  Single marks H33K27me1: 0.2147 and 0.2058
  Single marks H33K27me2: 0.4693 and 0.4746
  Single marks H33K27me3: 0.1187 and 0.09838
  Single marks H33K36me1: 0.2345 and 0.1564
  Single marks H33K36me2: 0.4525 and 0.5384
  Single marks H33K36me3: 0.03679 and 0.06963
[2]
  Relative abundance, H1_1_35 H11.SETAPVAQAASTATEKPAAAKKTKKPAKAAAPR: 0.0%
  Relative abundance, H1_1_35 H13.SETAPAAPAAPAPVEKTPVKKKAKKTGAAAGKR: 0.0%
  Relative abundance, H1_1_35 H15.SETAPAETAAPAPVEKSPAKKKTTKKAGAAKR: 0.0%
  Relative abundance, H1_54_81 H1v234.SGVSLAALKKALAAAGYDVEKNNSR: 100.0% and 65.9%
  Relative abundance, H1_54_81 H11.SGVSLAALKKSLAAAGYDVEKNNSR: 0.0%
  Relative abundance, H1_54_81 H15.GGVSLPALKKALAAGGYDVEKNNSR: 0.0%
HEK293T cells expressing asKDM4A, 100 μM 6A, LC-MS/MS
  relative abundance of other key histone methylation and acetylation sites: remained unaffected
[3]
  relative abundance of H3K9me3: recovered to the level of the control vector
  relative abundance of H3K36me3: recovered to the level of the control vector
[4]
  Relative abundance AKAKSR(H2A3_12_17) (peptide total): 100.0%
  Relative abundance AKAKTR(H2A1_12_17) (peptide total): 100.0%
  Relative abundance DNKKTR(H2A1_72_77) (peptide total): 100.0%
  Relative abundance H2A1_12_17 K13ac: 0.0152% and 0.527%
  Relative abundance H2A1_12_17 K13acK15ac: 0.0603% and 0.3%
  Relative abundance H2A1_12_17 K13me1: 1.8% and 5.0%
  Relative abundance H2A1_12_17 K15ac: 15.2% and 32.5%
  Relative abundance H2A1_12_17 K15me1: 4.8% and 11.0%
  Relative abundance H2A1_12_17 unmod: 78.1% and 50.7%
  Relative abundance H2A1_72_77 K74ac: 0.0186% and 0.272%
  Relative abundance H2A1_72_77 unmod: 100.0% and 99.7%
  Relative abundance H2A3_12_17 K13ac: 0.023% and 0.0778%
  Relative abundance H2A3_12_17 K13acK15ac: 0.0187% and 0.4%
  Relative abundance H2A3_12_17 K13me1: 11.1% and 15.7%
  Relative abundance H2A3_12_17 K15ac: 0.0415% and 0.131%
  Relative abundance H2A3_12_17 K15me1: 72.5% and 57.2%
  Relative abundance H2A3_12_17 unmod: 16.3% and 26.5%
  Relative abundance H2AZ_1_19 K4acK7acK11ac: 0.0%
  Relative abundance H2AZ_1_19 K4acK7acK11acK15ac: 1.0% and 0.641%
  Relative abundance H2A_1_88 H2A14s.HLQLAIR: 85.1% and 95.1%
  Relative abundance H2A_1_88 H2AX.GKTGGKAR: 1.9% and 1.0%
  Relative abundance H2A_1_88 H2AZ.AGGKAGKDSGKAKTKAVSR: 13.0% and 3.9%
